Holding throughout (test): relative viability (nuclei count vs DMSO), 5 days (fraction); higher = more cells survive
Compound in the assay “Seliciclib + Decitabine”: CC[C@H](CO)Nc1nc(NCc2ccccc2)c2ncn(C(C)C)c2n1 [Seliciclib] + Nc1ncn([C@H]2C[C@H](O)[C@@H](CO)O2)c(=O)n1 [Decitabine] (partner 2 µM)
The method in brief:
(§1)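 Nuclei were stained with Hoechst during a one-step fixation (final 0.05% Triton X-100, 1% formaldehyde, 1 ug/ml Hoechst) carried out 5 days after dosing, then counted on 4× images. The cells, lung cancer lines in 1536-well plates, had been dosed by pin tool the day after seeding with one drug alone or a fixed anchor-drug dose plus five library-drug doses (not always all listed) in √10 steps. Relative viability is the nuclei count in treated wells divided by that in vehicle wells, and each value is the median of duplicate plates.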

Compound in the assay “Seliciclib + Foretinib”: CC[C@H](CO)Nc1nc(NCc2ccccc2)c2ncn(C(C)C)c2n1 [Seliciclib] + COc1cc2c(Oc3ccc(NC(=O)C4(C(=O)Nc5ccc(F)cc5)CC4)cc3F)ccnc2cc1OCCCN1CCOCC1 [Foretinib] (partner 0.25 µM)
A digest of the protocol: as §1

Compound in the assay “Seliciclib + Dasatinib”: CC[C@H](CO)Nc1nc(NCc2ccccc2)c2ncn(C(C)C)c2n1 [Seliciclib] + Cc1nc(Nc2ncc(C(=O)Nc3c(C)cccc3Cl)s2)cc(N2CCN(CCO)CC2)n1 [Dasatinib] (partner 0.075 µM)
The method in brief: as §1

Compound in the assay “Seliciclib + Luminespib”: CC[C@H](CO)Nc1nc(NCc2ccccc2)c2ncn(C(C)C)c2n1 [Seliciclib] + CCNC(=O)c1noc(-c2cc(C(C)C)c(O)cc2O)c1-c1ccc(CN2CCOCC2)cc1 [Luminespib] (partner 0.01 µM)
The method in brief:
as §1

Consider nine cell lines from the supplement of paper PMC10307832.

Consider 201T, for which the relative viability with Seliciclib + Decitabine (first compound 0.08 µM) worked out at 0.827; in the assay with Seliciclib + Decitabine (first compound 0.253 µM), 0.893; with Seliciclib + Decitabine (first compound 0.8 µM) it was 0.857; in the assay with Seliciclib + Decitabine (first compound 2.53 µM) it was 0.806; in the assay with Seliciclib + Decitabine (first compound 8 µM), 0.728; in the assay with Seliciclib + Foretinib (first compound 0.08 µM), 0.915. For the same cell line, the relative viability with Seliciclib + Foretinib (first compound 0.253 µM) amounted to 1.13; with Seliciclib + Foretinib (first compound 0.8 µM), 1.07; with Seliciclib + Foretinib (first compound 8 µM) it was 1.04; in the assay with Seliciclib + Dasatinib (first compound 0.08 µM), 0.502; with Seliciclib + Dasatinib (first compound 0.253 µM), 0.654; in the assay with Seliciclib + Dasatinib (first compound 0.8 µM) it was 0.589. Besides, the relative viability amounted to 0.385 with Seliciclib + Dasatinib (first compound 2.53 µM); 0.548 in the assay with Seliciclib + Dasatinib (first compound 8 µM); 1.02 in the assay with Seliciclib + Luminespib (first compound 0.08 µM); 1.1 in the assay with Seliciclib + Luminespib (first compound 0.253 µM); 0.976 with Seliciclib + Luminespib (first compound 0.8 µM); 0.999 with Seliciclib + Luminespib (first compound 2.53 µM). Further, the relative viability with Seliciclib + Luminespib (first compound 8 µM) was 1.03.
With A549, the relative viability was 0.279 in the assay with Seliciclib + Decitabine (first compound 0.08 µM); 0.235 in the assay with Seliciclib + Decitabine (first compound 0.253 µM); 0.188 in the assay with Seliciclib + Decitabine (first compound 0.8 µM); 0.286 with Seliciclib + Decitabine (first compound 2.53 µM); 0.248 with Seliciclib + Decitabine (first compound 8 µM); 0.919 with Seliciclib + Foretinib (first compound 0.08 µM). The relative viability with Seliciclib + Foretinib (first compound 0.253 µM) worked out at 0.985; in the assay with Seliciclib + Foretinib (first compound 0.8 µM), 0.895; in the assay with Seliciclib + Foretinib (first compound 2.53 µM) it was 0.966; with Seliciclib + Foretinib (first compound 8 µM) it was 0.775.
In the case of A-427, the relative viability stood at 0.606 with Seliciclib + Decitabine (first compound 0.08 µM); 0.521 with Seliciclib + Decitabine (first compound 0.253 µM); 0.612 in the assay with Seliciclib + Decitabine (first compound 0.8 µM); 0.52 in the assay with Seliciclib + Decitabine (first compound 2.53 µM); 0.589 with Seliciclib + Decitabine (first compound 8 µM); 1.06 with Seliciclib + Foretinib (first compound 0.08 µM). Moreover, the relative viability in the assay with Seliciclib + Foretinib (first compound 0.253 µM) was 1.11; with Seliciclib + Foretinib (first compound 0.8 µM) it was 0.944; with Seliciclib + Foretinib (first compound 2.53 µM) it was 1.28; with Seliciclib + Foretinib (first compound 8 µM) it was 1.17; in the assay with Seliciclib + Dasatinib (first compound 0.08 µM) it was 0.612; with Seliciclib + Dasatinib (first compound 0.253 µM) it was 0.691. Also, the relative viability with Seliciclib + Dasatinib (first compound 0.8 µM) was 0.687; in the assay with Seliciclib + Dasatinib (first compound 2.53 µM) it was 0.735; with Seliciclib + Dasatinib (first compound 8 µM) it was 0.738; with Seliciclib + Luminespib (first compound 0.08 µM), 0.905; in the assay with Seliciclib + Luminespib (first compound 0.253 µM), 0.744; in the assay with Seliciclib + Luminespib (first compound 0.8 µM), 0.926. The relative viability with Seliciclib + Luminespib (first compound 2.53 µM) was 0.873; in the assay with Seliciclib + Luminespib (first compound 8 µM), 0.902.
On to ABC-1, for which the relative viability with Seliciclib + Decitabine (first compound 0.08 µM) is 1.11; with Seliciclib + Decitabine (first compound 0.253 µM), 1.18; in the assay with Seliciclib + Decitabine (first compound 0.8 µM), 1.17; with Seliciclib + Decitabine (first compound 8 µM), 0.6; in the assay with Seliciclib + Foretinib (first compound 0.08 µM), 1.04; in the assay with Seliciclib + Foretinib (first compound 0.253 µM), 0.987. In addition, the relative viability in the assay with Seliciclib + Foretinib (first compound 0.8 µM) came to 1.17; with Seliciclib + Foretinib (first compound 2.53 µM), 1.02; in the assay with Seliciclib + Foretinib (first compound 8 µM) it was 1.2; with Seliciclib + Dasatinib (first compound 0.08 µM), 0.536; with Seliciclib + Dasatinib (first compound 0.253 µM), 0.566; with Seliciclib + Dasatinib (first compound 0.8 µM), 0.598. Moreover, the relative viability was 0.524 with Seliciclib + Dasatinib (first compound 2.53 µM); 0.509 with Seliciclib + Dasatinib (first compound 8 µM); 0.447 with Seliciclib + Luminespib (first compound 0.08 µM); 0.753 with Seliciclib + Luminespib (first compound 0.253 µM); 0.478 with Seliciclib + Luminespib (first compound 0.8 µM); 0.378 in the assay with Seliciclib + Luminespib (first compound 2.53 µM). Besides, the relative viability with Seliciclib + Luminespib (first compound 8 µM) stood at 0.396.
With BEN, the relative viability is 0.738 with Seliciclib + Decitabine (first compound 0.08 µM); 0.739 in the assay with Seliciclib + Decitabine (first compound 0.253 µM); 0.761 in the assay with Seliciclib + Decitabine (first compound 0.8 µM); 0.698 with Seliciclib + Decitabine (first compound 2.53 µM); 0.622 with Seliciclib + Decitabine (first compound 8 µM); 0.615 in the assay with Seliciclib + Foretinib (first compound 0.08 µM). The relative viability worked out at 0.576 in the assay with Seliciclib + Foretinib (first compound 0.253 µM); 0.746 with Seliciclib + Foretinib (first compound 0.8 µM); 0.621 with Seliciclib + Foretinib (first compound 2.53 µM); 0.592 in the assay with Seliciclib + Foretinib (first compound 8 µM); 0.311 with Seliciclib + Dasatinib (first compound 0.08 µM); 0.313 with Seliciclib + Dasatinib (first compound 0.253 µM). The relative viability was 0.375 in the assay with Seliciclib + Dasatinib (first compound 0.8 µM); 0.271 with Seliciclib + Dasatinib (first compound 2.53 µM); 0.322 with Seliciclib + Dasatinib (first compound 8 µM); 0.344 with Seliciclib + Luminespib (first compound 0.08 µM); 0.439 with Seliciclib + Luminespib (first compound 0.253 µM); 0.662 with Seliciclib + Luminespib (first compound 0.8 µM). The relative viability stood at 0.259 in the assay with Seliciclib + Luminespib (first compound 2.53 µM) and 0.251 with Seliciclib + Luminespib (first compound 8 µM).
CAL-12T: the relative viability with Seliciclib + Foretinib (first compound 0.08 µM) came out at 1.16; with Seliciclib + Foretinib (first compound 0.253 µM), 1.48; with Seliciclib + Foretinib (first compound 0.8 µM), 1.26; in the assay with Seliciclib + Foretinib (first compound 2.53 µM) it was 1.21; in the assay with Seliciclib + Foretinib (first compound 8 µM) it was 0.731; in the assay with Seliciclib + Dasatinib (first compound 0.08 µM), 0.501. The relative viability in the assay with Seliciclib + Dasatinib (first compound 0.253 µM) worked out at 0.738; with Seliciclib + Dasatinib (first compound 0.8 µM) it was 0.362; with Seliciclib + Dasatinib (first compound 2.53 µM), 0.23; with Seliciclib + Dasatinib (first compound 8 µM), 0.284; with Seliciclib + Luminespib (first compound 0.08 µM), 0.351; with Seliciclib + Luminespib (first compound 0.253 µM), 0.411. Further, the relative viability was determined as 0.363 with Seliciclib + Luminespib (first compound 0.8 µM), 0.388 with Seliciclib + Luminespib (first compound 2.53 µM) and 0.313 with Seliciclib + Luminespib (first compound 8 µM).
For COR-L23, the relative viability in the assay with Seliciclib + Decitabine (first compound 0.08 µM) came out at 0.395; with Seliciclib + Decitabine (first compound 0.253 µM), 0.34; with Seliciclib + Decitabine (first compound 0.8 µM), 0.478; with Seliciclib + Decitabine (first compound 2.53 µM), 0.419; in the assay with Seliciclib + Decitabine (first compound 8 µM) it was 0.403; with Seliciclib + Foretinib (first compound 0.08 µM), 0.928. Further, the relative viability with Seliciclib + Foretinib (first compound 0.253 µM) was found to be 1.22; with Seliciclib + Foretinib (first compound 0.8 µM), 0.981; in the assay with Seliciclib + Foretinib (first compound 2.53 µM), 0.99; with Seliciclib + Foretinib (first compound 8 µM), 0.738; with Seliciclib + Dasatinib (first compound 0.08 µM) it was 0.457; in the assay with Seliciclib + Dasatinib (first compound 0.253 µM), 0.644. The relative viability with Seliciclib + Dasatinib (first compound 0.8 µM) amounted to 0.484; with Seliciclib + Dasatinib (first compound 2.53 µM), 0.342; with Seliciclib + Dasatinib (first compound 8 µM), 0.383; in the assay with Seliciclib + Luminespib (first compound 0.08 µM), 0.658; in the assay with Seliciclib + Luminespib (first compound 0.253 µM), 0.67; with Seliciclib + Luminespib (first compound 0.8 µM), 0.579. The relative viability with Seliciclib + Luminespib (first compound 2.53 µM) was 0.871; in the assay with Seliciclib + Luminespib (first compound 8 µM), 0.556.
As for COR-L 105, the relative viability is 0.568 with Seliciclib + Decitabine (first compound 0.08 µM); 0.664 with Seliciclib + Decitabine (first compound 0.253 µM); 0.648 with Seliciclib + Decitabine (first compound 0.8 µM); 0.605 in the assay with Seliciclib + Decitabine (first compound 2.53 µM); 0.557 with Seliciclib + Decitabine (first compound 8 µM); 1.11 with Seliciclib + Foretinib (first compound 0.08 µM). In addition, the relative viability with Seliciclib + Foretinib (first compound 0.253 µM) was found to be 0.8; in the assay with Seliciclib + Foretinib (first compound 0.8 µM), 1.02; with Seliciclib + Foretinib (first compound 2.53 µM), 1.18; in the assay with Seliciclib + Foretinib (first compound 8 µM), 1.02; with Seliciclib + Dasatinib (first compound 0.08 µM), 0.377; with Seliciclib + Dasatinib (first compound 0.253 µM), 0.405. The relative viability was 0.324 in the assay with Seliciclib + Dasatinib (first compound 0.8 µM); 0.311 in the assay with Seliciclib + Dasatinib (first compound 2.53 µM); 0.37 in the assay with Seliciclib + Dasatinib (first compound 8 µM); 1.07 with Seliciclib + Luminespib (first compound 0.08 µM); 0.428 with Seliciclib + Luminespib (first compound 0.253 µM); 0.817 in the assay with Seliciclib + Luminespib (first compound 0.8 µM). Also, the relative viability with Seliciclib + Luminespib (first compound 2.53 µM) was 0.859; with Seliciclib + Luminespib (first compound 8 µM) it was 0.532.
Regarding Calu-6, the relative viability in the assay with Seliciclib + Foretinib (first compound 0.08 µM) is 0.847; with Seliciclib + Foretinib (first compound 0.253 µM), 0.686; with Seliciclib + Foretinib (first compound 0.8 µM), 0.945; in the assay with Seliciclib + Foretinib (first compound 2.53 µM), 0.892; in the assay with Seliciclib + Foretinib (first compound 8 µM), 0.733.
